Reference: article PMC8742647 (Clinical and Translational Science, 2021)
Like-named read-outs stand apart in the source and are kept apart here.

What was measured:
[1] = fraction unbound in plasma, equilibrium dialysis; format: in vitro ADME, humans; conditions: fraction unbound in human plasma
[2] = total clearance after intravenous administration to PXB-mice; format: in vivo, PXB‐mice (chimeric mice with humanized livers); conditions: intravenous cassette dose 0.1 mg/kg, N = 3, noncompartmental analysis
[3] = prediction of CLt,human by single-species allometric scaling from PXB-mice; set-up: species or system humans; conditions: for Predicted CLt,human, PXB‐SSS: scaled from CLt in PXB-mice, exponent 0.75; for Fold error (predicted/observed), PXB‐SSS: predicted/observed CLt,human
[4] = prediction of CLt,human by physiologically based scaling using PXB-mice; set-up: species or system humans; conditions: for Predicted CLt,human, PXB‐PBS: from CLt in PXB-mice, dispersion model, CLint per hepatocyte assumed equal; for Fold error (predicted/observed), PXB‐PBS: predicted/observed CLt,human
[5] = prediction of CLt,human by in vitro–in vivo extrapolation; set-up: species or system humans; conditions: for Predicted CLt,human, IVIVE: from in vitro CLint per human hepatocyte, dispersion model
[6] = test system: cryopreserved human hepatocytes; assay: in vitro metabolic stability assay using cryopreserved human hepatocytes; conditions: for CLint per hepatocyte, Humans: in vitro, human hepatocytes, corrected with fraction unbound in hepatocytes and medium; for turnover during a 4‐h incubation in the human hepatocyte assay: criterion for low‐CLint compounds: no significant turnover (<20%); for % remaining after a 4‐h incubation: cryopreserved human hepatocytes, 0.5 million cells/ml, 0.1 or 1 µmol/l
[7] = prediction of CLt,human by multispecies allometric scaling, rule of exponent; conditions: for Predicted CLt,human, ROE: from CLt in rats, monkeys and dogs; for Fold error (predicted/observed), ROE: predicted/observed CLt,human
[8] = for Predicted CLt,human, FCIM: from CLt in rats, monkeys and dogs and fu,p ratio rat/human; for Fold error (predicted/observed), FCIM: predicted/observed CLt,human
[9] = total clearance after intravenous administration to rats; format: in vivo, Sprague–Dawley rats; conditions: intravenous cassette dose 0.1 mg/kg, N = 3
[10] = total clearance after intravenous administration to monkeys; format: in vivo, cynomolgus monkeys; conditions: intravenous cassette dose 0.1 mg/kg, N = 3
[11] = fraction unbound in rat plasma; ref Table S1; cited from earlier work
[12] = ref Table S1; cited from earlier work
[13] = humans; ref Table S1; cited from earlier work
[14] = blood‐to‐plasma concentration ratio, ref Table S1; cited from earlier work
[15] = ref Table S1; cited from earlier work; remark: listed apart in the source
[16] = ref Table S1; cited from earlier work; remark: listed apart in the source

SMILES	f u,p, Humans [1]	CLt, PXB‐mice [2]	Predicted CLt,human, PXB‐SSS [3]	Predicted CLt,human, PXB‐PBS [4]	Predicted CLt,human, IVIVE [5]	CLint per hepatocyte, Humans [6]	Predicted CLt,human, ROE [7]	Predicted CLt,human, FCIM [8]	CLt, Rats [9]	CLt, Monkeys [10]	turnover during a 4‐h incubation in the human hepatocyte assay [6]	f u,p, Rats [11]	CLt, Dogs [12]	Observed CLt,human [13]	R b, Humans [14]	other results
COc1cc2nc(N3CCN(C(=O)C4COc5ccccc5O4)CC3)nc(N)c2cc1OC (stereo not shown) [Doxazosin]	0.066	34.245 mL/min/kg	4.61 mL/min/kg	5.65 mL/min/kg	5.62 mL/min/kg	41.5 µl/min/1 × 10^6 cells	3.93 mL/min/kg	6.20 mL/min/kg	–	–	–	–	–	–	–	–
CCCCNC(=O)NS(=O)(=O)c1ccc(C)cc1 [Tolbutamide]	–	0.58 mL/min/kg	0.074 mL/min/kg	0.088 mL/min/kg	–	–	0.040 mL/min/kg	–	0.39 mL/min/kg	0.0456 mL/min/kg	< 20%	–	–	–	–	–
CNC(=C[N+](=O)[O-])NCCSCc1ccc(CN(C)C)o1 [Ranitidine]	1.000	131.02 mL/min/kg	16.9 mL/min/kg	16.4 mL/min/kg	–	–	5.4 mL/min/kg	11.1 mL/min/kg	99.88 mL/min/kg	–	–	0.900	–	–	–	–
CN[C@@H]1C[C@H]2O[C@@](C)([C@@H]1OC)n1c3ccccc3c3c4c(c5c6ccccc6n2c5c31)C(=O)N[C@H]4O [UCN−01, 7‐hydroxystaurosporine]	0.003	0.0369 mL/min/kg	0.0050 mL/min/kg	0.0056 mL/min/kg	0.6186 mL/min/kg	83.5 µl/min/1 × 10^6 cells	1.5640 mL/min/kg	1.3765 mL/min/kg	77.37 mL/min/kg	3.36 mL/min/kg	–	0.0175	10.27 mL/min/kg	0.0037 mL/min/kg	–	Fold error (predicted/observed), PXB‐SSS [3]: 1.35; Fold error (predicted/observed), PXB‐PBS [4]: 1.52; Fold error (predicted/observed), IVIVE ([5]; predicted/observed CLt,human): 167.20; % remaining after a 4‐h incubation [6]: 4%; Fold error (predicted/observed), ROE [7]: 422.70; Fold error (predicted/observed), FCIM [8]: 372.03
CN1C(C(=O)Nc2ccccn2)=C(O)c2sccc2S1(=O)=O [Tenoxicam]	0.015	0.2878 mL/min/kg	0.039 mL/min/kg	0.044 mL/min/kg	–	–	0.029 mL/min/kg	0.085 mL/min/kg	0.49 mL/min/kg	0.061 mL/min/kg	< 20%	0.030	0.104 mL/min/kg	0.03 mL/min/kg	0.67	Fold error (predicted/observed), PXB‐SSS [3]: 1.29; Fold error (predicted/observed), PXB‐PBS [4]: 1.46; discrepancy between observed and predicted CLt,human, ROE approach [7]: more than 3 fold; Fold error (predicted/observed), ROE [7]: 0.98; discrepancy between observed and predicted CLt,human, FCIM approach [8]: more than 3 fold; Fold error (predicted/observed), FCIM [8]: 2.83
CN1C(=O)CN=C(c2ccccc2)c2cc(Cl)ccc21 [Diazepam]	–	42.147 mL/min/kg	5.68 mL/min/kg	7.52 mL/min/kg	0.69 mL/min/kg	–	12.46 mL/min/kg	2.53 mL/min/kg	–	–	–	–	46.71 mL/min/kg	0.38 mL/min/kg	0.71	CLt, Rats [15]: 61.51 mL/min/kg; CLt, Monkeys [16]: 17.90 mL/min/kg
CC(=O)C[C@@H](c1ccccc1)c1c(O)c2ccccc2oc1=O [(S)‐Warfarin]	–	0.484 mL/min/kg	0.062 mL/min/kg	0.074 mL/min/kg	–	–	0.417 mL/min/kg	0.330 mL/min/kg	0.21 mL/min/kg	–	< 20%	–	–	0.055 mL/min/kg	0.55	% remaining after a 4‐h incubation [6]: 80%; discrepancy between observed and predicted CLt,human, ROE approach [7]: more than 3 fold; discrepancy between observed and predicted CLt,human, FCIM approach [8]: more than 3 fold
CCOc1ccccc1OC(c1ccccc1)C1CNCCO1 (stereo not shown) [Reboxetine]	–	–	2.39 mL/min/kg	2.79 mL/min/kg	1.37 mL/min/kg	13.9 µl/min/1 × 10^6 cells	9.52 mL/min/kg	1.82 mL/min/kg	–	–	–	–	22.39 mL/min/kg	0.82 mL/min/kg	–	CLt, Rats [15]: 61.51 mL/min/kg; CLt, Monkeys [16]: 14.94 mL/min/kg
